| melting point [°C] | SMILES |
| --- | --- |
| 112 | COc1cc(-c2nc3ccc(OCCCN(C)C)cc3n2Cc2ccccc2)cc(OC)c1OC |
| 140 | COc1cc(O)c(C(=O)C=Cc2cccn2C)c(OC)c1 |
| 140 to 141 | CC(C)C[C@H](N)C(=O)N[C@@H](CC1CCCCC1)[C@@H](O)c1nccs1 |
| 284 to 286 | CC(C)(C)c1ccc(-c2nnc(-c3ccc(C(=O)O)cc3)o2)cc1 |
| 68 | CCOC(=O)N1CCN(c2ccc(Br)cn2)CC1 |
| > 300 | O=Cc1cc(-c2ccc(O)c(O)c2)c2cc(O)c(O)cc2c1O |
| 110 to 113 | CCNc1cccc(NC(=O)COC(C)=O)c1C#N |
| 151 to 152 | COCC(C)N1Cc2c(NC(=O)c3ccc(F)c(C(F)(F)F)c3)cccc2C1=O (stereo unspecified) |
| 56 to 57 | OC(CCl)(c1ccccc1)c1ccccc1 |
| 85 to 87 | C=C1CC(C)(c2ccc(Nc3c4ccccc4nc4occc34)cc2)OC1=O (stereo unspecified) |
| 188 to 190 | CC(C)(CO)COc1ccc(-n2cc(C(=O)O)cn2)cc1C#N |
| 273 to 274 | O=C(NC1CC1)c1cccc(-c2ccc3ccn(-c4ccc(Cl)cc4Cl)c3c2)c1 |
| 81 to 84 | O=C(CC(=O)C1CC1)c1ccncn1 |
| 58 | Clc1ccc(CC2(c3ccccc3)OCC(CN3CCCCC3)O2)cc1 (stereo unspecified) |
| 224 to 226 | CCOC(=O)c1[nH]c2ccc(Cl)c(F)c2c1S(=O)(=O)c1cc(C)cc(C)c1 |
| 76 to 77 | c1ccc(CSc2cn3ccsc3n2)cc1 |
| 91 | O=C(CCCCCN1CCN(c2cccc(C(F)(F)F)c2)CC1)N1Cc2ccc(C(=O)N3CCCCC3)cc2C1 |
| 52 to 53 | CCC(O)(c1ccc(OCc2ccccc2)cc1)c1cccc(Cl)c1 (stereo unspecified) |
| 144 to 145 | NC(=O)CC(O)(Cn1cncn1)c1ccc(Cl)cc1Cl (stereo unspecified) |
| 137 to 138 | CCOc1cc2c(Nc3cc(OC)c(Cl)cc3Cl)c(C#N)cnc2cc1OCCCN1CCN(C)CC1 |
| 88 to 94 | CC1N(C(=O)c2ccc(OCC(F)(F)C(F)F)cc2)CC(=O)OC1(Cn1cncn1)c1ccc(Cl)cc1Cl (stereo unspecified) |
| 55 to 64 | CC(CCn1ccnc1)N=C1c2cccc3cccc(c23)N1C(c1ccccc1)c1ccccc1 (stereo unspecified) |
| 135 to 137 | CC(C)(CCn1ccnc1)NCC(O)c1ccc(O)c(CO)c1 (stereo unspecified) |

| melting point [°C] | SMILES |
| --- | --- |
| 112 | COc1ccc(C(=O)C=Cc2ccc(SC)cc2)cc1 |
| 103 | COCOc1cc2c(c3ccccc13)Nc1ccccc1S2 |
| 132 to 133 | CCOP(=O)(Cc1ccc(NC(=O)Cc2cnoc2-c2ccccc2)cc1)OCC |
| 75 to 90 | CN(CC(=O)[C@H](Cc1ccccc1)NC(=O)N1CCOCC1)C(=O)N1CCC[C@H]1C(=O)O |
| 71 to 74 | O=C(CN1CCN2c3ccccc3Cn3cccc3C2C1)c1ccc(Cl)cc1 (stereo unspecified) |
| 118 to 119 | CCCCCCCCc1ccc(C(O)CC(CO)(CO)NC(C)=O)cc1 (stereo unspecified) |
| 177 to 179 | CC(CCC(F)(F)C(C)(C)O)C1CCC2C3CC=C4CC(O)CC(O)C4(C)C3CCC12C (stereo unspecified) |
| 115 | CCOC(=O)C(C(=O)N(C)C)=C(OCc1ccccc1)c1ccc(Cl)cc1Cl |
| 209 to 210 | C=Cc1cccc(C(=O)NC(Nc2c(Nc3cccnc3)c(=O)c2=O)C(C)(C)C)c1 (stereo unspecified) |
| 95.5 to 100 | O=C(O)Cc1cc(OCc2ccccc2)ccc1OCc1ccccc1 |
| 236 to 238 | CCOC(=O)c1cn(CC)c2cc(-c3csc(C(C)NC(C)=O)n3)c(F)cc2c1=O (stereo unspecified) |
| 117 to 118 | Cc1oc(-c2cccs2)nc1COc1ccc(Cn2cc(CCC(=O)O)c(-c3ccccc3)c2)cc1 |
| 97 to 98 | COC(=O)c1cc(OCc2cccc(Cl)c2)ccc1OCCCC#N |
| 192 to 193 | COC(=O)c1ccccc1S(=O)(=O)NC(=O)Nc1ncc(C)n(C)c1=O |
| 205 to 208 | Cn1c(Cl)c(Cl)c2cnc(NC(=O)c3ccc([C@](C)(O)CO)cc3)cc21 |
| 266 | O=Cc1cccc(-c2cnc3cnc(-c4ccc(O)cc4)nc3c2)c1 |
| 172 to 173 | O=C(O)c1cnc(Oc2ccccc2)s1 |
| 73 to 74 | CCCN(CCC)C(=O)C(C)Oc1nc(-c2ccccc2)nc2c1CCCC2 (stereo unspecified) |
| 226 to 229 | Cc1[nH]cnc1CC1CCc2c(C)c3ccccc3n2C1=O (stereo unspecified) |
| 126 to 127 | CCOC(=O)C=Cc1ccn(C)c(=O)c1 |
| 137 to 138 | CCC1CCCCN1C(=O)Nc1ccccc1CCc1cc(C(C)(C)C)c(O)c(C(C)(C)C)c1 (stereo unspecified) |
| 83 to 84 | OC1COC(c2ccccc2)OC1 (stereo unspecified) |
| 190 | O=C1C=CC2(C=C1)N=C(N1CCN(Cc3ccccc3)CC1)C=C2c1ccccc1 |

| melting point [°C] | SMILES |
| --- | --- |
| 157 to 158 | CC(=O)N(C)CCc1ccc(C=CC(=O)O)cc1 |
| 129 to 130 | COC1=CC(=O)N(CC(=O)OCc2ccccc2)C1 |
| 148 to 150 | CCCCc1ncc(CC(Cc2ccccc2)C(=O)O)n1Cc1ccccc1 (stereo unspecified) |
| 229 to 230 | CCn1nc2c(N)nc3ccccc3c2c1CC(C)(C)NS(C)(=O)=O |
| 73 to 76 | Cc1cccc(-c2[nH]c(C(C)C)nc2-c2cccc(-c3cccs3)c2)n1 |
| 134 | COc1ccc(C(=O)NCCBr)c([N+](=O)[O-])c1 |
| 122 to 124 | O=C(O)C#CC(=O)c1ccc2c(c1)OCO2 |
| 94 to 96 | CCNC(=S)n1nc(Oc2c(Cl)cc(C(F)(F)F)cc2Cl)cc1C |
| 150 | CC1C(=O)N(c2ccc(F)cc2)C(=S)N1c1ccc(Oc2ccccc2)cc1 (stereo unspecified) |
| 189 to 191 | COc1cc2c(cc1OC)C(=O)C(c1ccc(F)cc1)C2 (stereo unspecified) |
| 194 to 196 | N=C(N)NNC(=O)c1cccc(-c2csc(N=C(N)N)n2)n1 |
| 143 to 145 | CN(c1ccncc1)c1csc2ncccc12 |
| 190 to 192 | O=[N+]([O-])c1cc[nH]c1-c1ccccc1 |
| 148 to 150 | CCC/C=C\c1nc(Cl)c(CO)n1Cc1ccc(-c2ccccc2)c(C(=O)O)c1 |
| 173 to 174 | COc1ccc(C(C)(C)CCC(=O)O)cc1NC(=O)C[C@H]1O[C@H](c2cccc(OC)c2OC)c2cc(Cl)ccc2N(CC(C)(C)CO)C1=O |
| 153 to 155 | CSC(C(N)=O)c1cccc(C(=O)c2ccccc2)c1N (stereo unspecified) |
| 168 to 169 | COc1ccc2c(C(=S)N(C)CC(=O)O)cccc2c1SC(F)(F)F |
| 85.6 to 86.7 | CC(C)(CCCCCCCCCCCCC1(C(=O)O)CC1)C(=O)O |
| 83 to 85 | CN(C)C(=O)C1=C(C(=O)Nc2ccc(Br)cc2F)CCCC1 |
| 172 to 174 | CC(=O)NC(C(=O)NCc1cccnc1)c1ccco1 (stereo unspecified) |
| 237 to 240 | O=[N+]([O-])c1cc(O)ccc1/C=C/c1ccc(O)cc1 |
| 71 to 74 | COc1ccc2c(c1[N+](=O)[O-])CN(C(=O)C(F)(F)F)CC(=O)N2C |
| 83 to 84 | CCOC(=O)CON(C)C(=S)Nc1cc(Cl)ccc1C |

| melting point [°C] | SMILES |
| --- | --- |
| 124 to 125 | N#CCNC(=O)c1ccnc(F)c1 |
| 191 to 192 | Cc1c(-c2ccccc2)oc2c(CC(=O)O)cccc2c1=O |
| 110 to 112 | CNCC(=O)Nc1ccc(S(=O)(=O)c2cccc(Cl)c2)cc1 |
| > 300 | COc1ccc(-c2[nH]nc3c2C(=O)c2c(NC(=O)Cc4ccc(N=[N+]=[N-])cc4)cccc2-3)cc1 |
| 164 to 165 | CC(C)(C)C1=CC(=C(C#N)C#N)C=C(c2cccs2)S1(=O)=O |
| 88 to 90 | CCOC(=O)Cc1c(C(=O)OCC)c(Br)c(C(=O)c2ccc(Cl)cc2)n1C |
| 158 to 159 | COc1ccc(Br)cc1C(=O)C(Br)C(Br)c1ccc(Br)cc1 (stereo unspecified) |
| 246 to 249 | CC(=O)NCC=C(c1ccc(-c2ccccc2)cc1)c1ccc(-c2ccccc2)cc1 |
| 150 to 152 | CCOC(=O)CC(=O)c1cc(C(CC(C)C)NC(=O)Cc2ccc(NC(=O)Nc3ccccc3Cl)cc2)no1 (stereo unspecified) |
| > 250 | O=S(=O)(c1ccccc1)c1c[nH]c2ncccc12 |
| 155 to 156 | CC(=O)N(O)Cc1ccccc1Nc1c(Cl)ccc(C)c1Cl |
| 57 to 59 | CCN1C(Cl)=NC(C)=NS1(=O)=O |
| 160 | O=C(O)COc1c(I)cc(C(=O)c2cccs2)cc1I |
| 114 to 117 | CC(C)COC(=O)N1CCC(c2ccc(COc3ccc(S(C)(=O)=O)cc3)nc2)CC1 |
| 99 to 101 | Cc1ccc(C(O)Cc2nc(C)c(C)nc2C)cc1 (stereo unspecified) |
| 222 to 224 | Nc1nc2n(C3OC(CO)C(O)C3O)[nH]cc-2c(=S)n1 (stereo unspecified) |
| > 190 | O=C(O)[C@@H]1CN(CCn2c(=O)ccc3c(F)cc(F)cc32)CC[C@H]1NCc1cc2c(cn1)OCCO2 |
| 109 | CCCC(=O)c1cc2ccccc2cc1C(=O)O |
| 62.5 to 64 | CC(C)(C)NC(=O)CCCCl |
| 240 to 241 | CCc1ccc2nc(-c3ccc(-c4ccccc4)cc3)c(N)c(C(=O)O)c2c1 |

| SMILES | melting point [°C] |
| --- | --- |
| Cc1cccc2c1N(CC(=O)N1CC3CCC(CC3)C1)C(=O)C(NC(=O)Nc1cccc(O)c1)N=C2c1ccccc1F (stereo unspecified) | 193 to 204 |
| Cc1nnc(C2CN3CCC2CC3)o1 (stereo unspecified) | 147 to 148 |
| CCOC1=CC2=CC[C@@H]3[C@H](CC[C@]4(CC)C(=O)C=C[C@@H]34)[C@H]2CC1 | 137 |
| CN1Cc2c(-c3nc(CNCc4ccccc4)no3)ncn2-c2ccccc2C1=O | 195 to 198 |
| CCCc1c(C(=O)C=C(C)C)c2ccc(C(N)=O)cc2n1Cc1cc2c(cc1Cl)OCO2 | 227 to 229 |
| Cc1ccc(CN2CCOCC2)cn1 | 51 to 52 |
| Cc1cc(C#N)cc(C(=O)NCC2CC2)c1NC(=O)c1cc(C(F)(F)F)nn1-c1ncccc1Cl | 235 to 236 |
| OCc1nc2n(c1CO)-c1ccc(Cl)cc1C(c1ccccc1F)=NC2 | 222 |
| COC(=O)c1ccc(OCCF)cc1 | 77 |
| CCCCC1(O)CCC2C3CCC4=CC(=O)CC(C)C4(C)C3CCC21C (stereo unspecified) | 85 |
| CC1(C)CCC(C)(C)c2c(C=O)cc(-c3ccccc3)cc21 | 113 |
| Cn1cnc2cc(NC(=O)c3cc4cc(F)ncc4n3Cc3cccc(F)c3)ccc21 | 279 to 281 |
